Measured values taken from ChEMBL document CHEMBL5370564, “Discovery of novel hybrids of mTOR inhibitor and NO donor as potential anti-tumor therapeutics” (Bioorg Med Chem, 2023).
Active and inactive are the calls of the source. No cut-off for these calls is given here.

Assays:
[1] = target: Serine/threonine-protein kinase mTOR (Homo sapiens, UniProt P42345); test: Inhibition of mTOR (unknown origin) using Ulight-4E-BP1 peptide as substrate incubated for 45 mins in presence of ATP by Lance Ultra assay
[2] = tested on: HepG2; test: Antiproliferative activity against human HepG2 cells assessed as inhibition of cell growth incubated for 70 hrs by CCK-8 assay; assay type: functional, cell-based; settings: HepG2, 70 h
[3] = tested on: MCF7; test: Antiproliferative activity against human MCF7 cells assessed as inhibition of cell growth incubated for 70 hrs by CCK-8 assay; assay type: functional, cell-based; settings: MCF7, 70 h
[4] = tested on: HL-60; test: Antiproliferative activity against human HL-60 cells assessed as inhibition of cell growth incubated for 70 hrs by CCK-8 assay; assay type: functional, cell-based; settings: HL-60, 70 h
[5] = Cytotoxicity against HUVEC assessed as inhibition of cell growth incubated for 70 hrs by CCK-8 assay; assay type: toxicity, cell-based; settings: human, HUVEC cells
[6] = tested on: HL-60; test: Induction of NO release in human HL-60 cells at 100 uM incubated for 12 hrs by griess reagent based colorimetric assay; assay type: functional, cell-based
[7] = tested on: mTORC1 (Homo sapiens); test: Inhibition of mTORC1 in human HL-60 cells assessed as reduction in S6 phosphorylation at Ser235/236 residue incubated for 24 hrs by Western blot assay; settings: dose 20-160 nM
[8] = tested on: mTORC2 (Homo sapiens); test: Inhibition of mTORC2 in human HL-60 cells assessed as reduction in Akt phosphorylation at S473 residue incubated for 24 hrs by Western blot assay; settings: dose 20-160 nM

| IC50 [1] [µM] | IC50 [2] [µM] | IC50 [3] [µM] | IC50 [4] [µM] | inhibition [7] | inhibition [8] | SMILES | IC50 at 70 h [5] [µM] | Activity [6] |
| --- | --- | --- | --- | --- | --- | --- | --- | --- |
| > 1 |  |  |  |  |  | Nc1nc2cc(-c3nn(CCCC(=O)OCc4ccc(OCc5c(-c6ccccc6)no[n+]5[O-])cc4)c4ncnc(N)c34)ccc2o1 |  |  |
| 0.00596 | > 10 | > 10 | 6.41 |  |  | CC(COc1no[n+]([O-])c1S(=O)(=O)c1ccccc1)NC(=O)CCCn1nc(-c2ccc3oc(N)nc3c2)c2c(N)ncnc21 (stereo unspecified) | 9.59 | Active |
| 0.00639 | 1.32 | 2.41 | 0.09 |  |  | Nc1nc2cc(-c3nn(CCCC(=O)OCCCOc4no[n+]([O-])c4S(=O)(=O)c4ccccc4)c4ncnc(N)c34)ccc2o1 | 9.37 | Active |
|  | 1.73 | 1.23 | 0.16 |  |  | CC(C)n1nc(-c2ccc3oc(N)nc3c2)c2c(N)ncnc21 [SAPANISERTIB] | > 10 | inactive |
| > 1 |  |  |  |  |  | Nc1nc2cc(-c3nn(CCCC(=O)OCCc4ccc(OCc5c(-c6ccccc6)no[n+]5[O-])cc4)c4ncnc(N)c34)ccc2o1 |  |  |
| 0.00982 | > 10 | > 10 | 7.47 |  |  | Nc1nc2cc(-c3nn(CCCC(=O)OCCCO[N+](=O)[O-])c4ncnc(N)c34)ccc2o1 | > 10 | Active |
| 0.00702 | 1.43 | 1.39 | 0.52 |  |  | Nc1nc2cc(-c3nn(CCCC(=O)OCCOCCOc4no[n+]([O-])c4S(=O)(=O)c4ccccc4)c4ncnc(N)c34)ccc2o1 | > 10 | Active |
| 0.337 |  |  |  |  |  | Nc1nc2cc(-c3nn(CCCC(=O)OCc4cccc(OCc5c(-c6ccccc6)no[n+]5[O-])c4)c4ncnc(N)c34)ccc2o1 |  |  |

The next lines start with the molecule.

| SMILES | IC50 [1] [µM] | IC50 [2] [µM] | IC50 [3] [µM] | IC50 [4] [µM] | inhibition [7] | inhibition [8] | IC50 at 70 h [5] [µM] | Activity [6] |
| --- | --- | --- | --- | --- | --- | --- | --- | --- |
| Nc1nc2cc(-c3nn(CCCC(=O)OCCCCO[N+](=O)[O-])c4ncnc(N)c34)ccc2o1 | 0.0129 |  |  |  |  |  |  |  |
| Nc1nc2cc(-c3nn(CCCC(=O)OCc4ccccc4OCc4c(-c5ccccc5)no[n+]4[O-])c4ncnc(N)c34)ccc2o1 | 0.0451 |  |  |  |  |  |  |  |
| Nc1nc2cc(-c3nn(CCCC(=O)NCCCOc4no[n+]([O-])c4S(=O)(=O)c4ccccc4)c4ncnc(N)c34)ccc2o1 | 0.0042 | 9.96 | 5.18 | 3.5 |  |  | > 10 | Active |
| Nc1nc2cc(-c3nn(CCCC(=O)OCc4c(-c5ccccc5)no[n+]4[O-])c4ncnc(N)c34)ccc2o1 | 0.0133 | > 10 | > 10 | 7.7 |  |  | > 10 | Active |
| Nc1nc2cc(-c3nn(CCCC(=O)OCCCCCO[N+](=O)[O-])c4ncnc(N)c34)ccc2o1 | 0.0125 |  |  |  |  |  |  |  |
| Nc1nc2cc(-c3nn(CCCC(=O)NCCOc4no[n+]([O-])c4S(=O)(=O)c4ccccc4)c4ncnc(N)c34)ccc2o1 | 0.0079 | > 10 | 6.11 | 2.05 |  |  | > 10 | Active |
| Nc1nc2cc(-c3nn(CCCC(=O)OCCOc4no[n+]([O-])c4S(=O)(=O)c4ccccc4)c4ncnc(N)c34)ccc2o1 | 0.00331 | 1.05 | 2.7 | 0.08 |  |  | 8.94 | Active |
| Nc1nc2cc(-c3nn(CCCC(=O)OCCCCCOc4no[n+]([O-])c4S(=O)(=O)c4ccccc4)c4ncnc(N)c34)ccc2o1 | 0.00952 | 1.43 | 2.72 | 0.16 |  |  | > 10 | Active |
| Nc1nc2cc(-c3nn(CCCC(=O)OCCCCOc4no[n+]([O-])c4S(=O)(=O)c4ccccc4)c4ncnc(N)c34)ccc2o1 | 0.00671 | 1.48 | 0.61 | 0.07 |  |  | > 10 | Active |
| Nc1nc2cc(-c3nn(CCCC(=O)OCCCCCCO[N+](=O)[O-])c4ncnc(N)c34)ccc2o1 | 0.0198 |  |  |  |  |  |  |  |
| Nc1nc2cc(-c3nn(CCCC(=O)OCCCCCCOc4no[n+]([O-])c4S(=O)(=O)c4ccccc4)c4ncnc(N)c34)ccc2o1 | 0.011 |  |  |  |  |  |  |  |
| Nc1nc2cc(-c3nn(CCCC(=O)OCC#CCOc4no[n+]([O-])c4S(=O)(=O)c4ccccc4)c4ncnc(N)c34)ccc2o1 | 0.00365 | 0.24 | 0.88 | 0.02 | Dose-Dependent Effect | Dose-Dependent Effect | > 10 | Active |
| Nc1nc2cc(-c3nn(CCCC(=O)OCCO[N+](=O)[O-])c4ncnc(N)c34)ccc2o1 | 0.0095 | > 10 | > 10 | > 10 |  |  | > 10 |  |
